How the values were obtained:
HepG2 cells = assay: LDH leakage assay (membrane integrity), 72 h exposure; type: cell-based, human; conditions: mean ± SD, n = 3
Description: (§1) The human hepatoma (HepG2) and colorectal adenocarcinoma (Caco-2) cells were purchased from the American Type Culture Collection: ATCC HB-8065 and ATCC HTB-37, respectively. These cells were cultured in Minimum Essential Medium Eagle (MEME) (ATCC). The murine fibroblasts cell line (Balb/c 3T3 clone A31) (gift from the Department of Swine Diseases of the National Veterinary Research Institute in Pulawy) was cultured in Dulbecco’s Modified Eagle Medium (DMEM) (ATCC). The media were supplemented with 10% BCS (Balb/c 3T3), 10% FBS (HepG2), 20% FBS (Caco-2), 1% L-glutamine, 1% antibiotic solution. The cells were maintained in 75 cm^2 cell culture flasks (NUNC) in a humidified incubator at 37 °C in an atmosphere of 5% CO2. The medium was refreshed every two or three days, and the cells were trypsinized by 0.25% trypsin–0.02% EDTA after reaching 70–80% confluence. Single cell suspensions were prepared and adjusted to a density of 2 × 10^5 cell/mL^−1 (HepG2), 1 × 10^5 cell/mL^−1 (Caco-2) and 5 × 10^4 cell/mL^−1 (Balb/c 3T3). The cell suspension was transferred to 96-well plates (100 µL/well) and incubated for 24 h before the exposure to the studied compounds. Stock solutions of ligands and metal complexes were prepared in sterile water and diluted with culture medium to obtain a concentration range from 0.1 to 10 µM. The final concentration of sterile water was 0.1% in the medium. […] As a negative control, cultured cells were grown in the absence of studied compounds. Each concentration was tested in six replicates in three independent experiments. Cytotoxicity was assessed after 72 h of exposure of the cells to compounds. The medium was not changed during the incubation time.
(§2) The integrity of the plasma membrane was assessed through the test of lactate dehydrogenase (LDH) release, which was monitored using the commercially available Cytotoxicity Detection Kit (LDH) (Roche Diagnostics, Warsaw, Poland). […] The absorbance was measured at 492 nm in a microplate reader Synergy HTX multi-mode reader (BioTek® Instruments Inc., Winooski, VT, USA) using a blank as a reference. […]

Balb/c 3T3 cells [1] = assay: MTT assay (mitochondrial activity), 72 h exposure; type: cell-based, murine; conditions: Balb/c 3T3, MTT, mean ± SD, n = 3
Description: as §1
The metabolic activity of living cells was assessed by the measurement of the activity of dehydrogenases. […] The plate was shaken for 15 min at room temperature and transferred to a microplate reader Synergy HTX multi-mode reader (BioTek® Instruments Inc., Winooski, VT, USA) to measure the absorbance at 570 nm, using a blank as a reference. Cytotoxicity was expressed as a percentage of the negative control. […]

Balb/c 3T3 cells [2] = assay: NRU assay (lysosomal activity), 72 h exposure; type: cell-based, murine; conditions: Balb/c 3T3, NRU, mean ± SD, n = 3
Description: as §1
This method is based on staining living cells with neutral red, which readily diffuses through the plasma membrane and accumulates in lysosomes. […] After 10 min of shaking, the absorbance of the dissolved NR was measured using a Synergy HTX multi-mode reader (BioTek® Instruments Inc., Winooski, VT, USA) at 540 nm using a blank as a reference. Cytotoxicity was expressed as a percentage of the negative control. […]

Balb/c 3T3 cells [3] = assay: TPC assay (total protein content), 72 h exposure; type: cell-based, murine; conditions: Balb/c 3T3, TPC, mean ± SD, n = 3
Description: as §1
This assay is based upon staining the total cellular protein (proliferation). […] The absorbance was measured at 595 nm in a microplate reader Synergy HTX multi-mode reader (BioTek® Instruments Inc., Winooski, VT, USA) using a blank as a reference. Cytotoxicity was expressed as a percentage of the negative control. […]

Balb/c 3T3 cells [4] = assay: LDH leakage assay (membrane integrity), 72 h exposure; type: cell-based, murine; conditions: Balb/c 3T3, LDH, mean ± SD, n = 3
Description: as §1, §2

Caco-2 cells [5] = assay: MTT assay (mitochondrial activity), 72 h exposure; type: cell-based, human; conditions: Caco-2, MTT, Figure 6
Caco-2 cells [6] = assay: NRU assay (lysosomal activity), 72 h exposure; type: cell-based, human; conditions: Caco-2, NRU, Figure 6
Caco-2 cells [7] = assay: TPC assay (total protein content), 72 h exposure; type: cell-based, human; conditions: Caco-2, TPC, Figure 6
Caco-2 cells [8] = assay: LDH leakage assay (membrane integrity), 72 h exposure; type: cell-based, human; conditions: Caco-2, LDH, Figure 6
S. aureus ATCC 25923 = assay: micro-dilution broth method (MIC, MBC); type: cell-based, Staphylococcus aureus
[9] = system: S. epidermidis ATCC 12228; assay: micro-dilution broth method (MIC, MBC); type: cell-based, Staphylococcus epidermidis
M. luteus ATCC 10240 = assay: micro-dilution broth method (MIC, MBC); type: cell-based, Micrococcus luteus
B. subtilis ATCC 6633 = assay: micro-dilution broth method (MIC, MBC); type: cell-based, Bacillus subtilis
B. cereus ATCC 10876 = assay: micro-dilution broth method (MIC, MBC); type: cell-based, Bacillus cereus
E. faecalis ATCC 29212 = assay: micro-dilution broth method (MIC, MBC); type: cell-based, Enterococcus faecalis
A. israeli ATCC 10049 = assay: micro-dilution broth method (MIC, MBC); type: cell-based, Actinomyces israelii
P. acnes ATCC 11827 = assay: micro-dilution broth method (MIC, MBC); type: cell-based, Propionibacterium acnes; conditions: P. acnes ATCC 11827, value in brackets
[10] = system: C. perfringens ATCC 13124; assay: microbe, parasite or virus in culture; type: cell-based, Clostridium perfringens
C. jejunii ATCC 33291 = assay: micro-dilution broth method (MIC, MBC); type: cell-based, Campylobacter jejunii
H. pylori ATCC 43504 = assay: micro-dilution broth method (MIC, MBC); type: cell-based
[11] = system: S. typhimurium ATCC 14028; assay: micro-dilution broth method (MIC, MBC); type: cell-based, Salmonella Typhimurium
E. coli ATCC 25922 = assay: micro-dilution broth method (MIC, MBC); type: cell-based, Escherichia coli
K. pneumoniae ATCC 13883 = assay: micro-dilution broth method (MIC, MBC); type: cell-based, Klebsiella pneumoniae
P. aeruginosa ATCC 9027 = assay: micro-dilution broth method (MIC, MBC); type: cell-based, Pseudomonas aeruginosa
B. fragilis ATCC 10240 = assay: micro-dilution broth method (MIC, MBC); type: cell-based, Bacteroides fragilis
P. intermedia ATCC 25611 = assay: micro-dilution broth method (MIC, MBC); type: cell-based
F. nucleatum ATCC 25586 = assay: micro-dilution broth method (MIC, MBC); type: cell-based, Fusobacterium nucleatum
V. parvula ATCC 10790 = assay: micro-dilution broth method (MIC, MBC); type: cell-based, Veillonella parvula
[12] = system: reference aerobic and anaerobic microorganisms (ATCC); assay: micro-dilution broth method, whole panel of reference strains; type: cell-based; conditions: against the majority of tested bacterial strains
S. aureus biofilm = assay: qualitative antibiofilm activity, confocal laser scanning microscope (CLSM); conditions: 500 mg/L, 24 h exposure
[13] = S. aureus ATCC 25923, value in brackets
[14] = S. epidermidis ATCC 12228, value in brackets
[15] = M. luteus ATCC 10240, value in brackets
[16] = B. subtilis ATCC 6633, value in brackets
[17] = B. cereus ATCC 10876, value in brackets
[18] = E. faecalis ATCC 29212, value in brackets
[19] = A. israeli ATCC 10049, value in brackets
[20] = C. perfringens ATCC 13124, value in brackets
[21] = C. jejunii ATCC 33291, value in brackets
[22] = H. pylori ATCC 43504, value in brackets
[23] = S. typhimurium ATCC 14028, value in brackets
[24] = E. coli ATCC 25922, value in brackets
[25] = K. pneumoniae ATCC 13883, value in brackets
[26] = P. aeruginosa ATCC 9027, value in brackets
[27] = B. fragilis ATCC 10240, value in brackets
[28] = P. intermedia ATCC 25611, value in brackets
[29] = F. nucleatum ATCC 25586, value in brackets
[30] = V. parvula ATCC 10790, value in brackets

N.N.[Cl][Pt][Cl] [Cisplatin, cisplatin]
> 10 µM: IC50 (Balb/c 3T3 cells [1]) | IC50 (Balb/c 3T3 cells [2]) | IC50 (Balb/c 3T3 cells [3]) | IC50 (Balb/c 3T3 cells [4])
< 0.1 µM: IC50 (HepG2 cells)

Cc1ncc([N+](=O)[O-])n1CCO.Cc1ncc([N+](=O)[O-])n1CCO.O=[N+]([O-])[O-].[Ag+] [[Ag(MTZ)2NO3]]
0.1 µM/mL: MIC (E. faecalis ATCC 29212; [18]) | MIC (C. jejunii ATCC 33291; [21]) | MBC [11, 23] | MBC (E. coli ATCC 25922; [24]) | MBC (K. pneumoniae ATCC 13883; [25])
0.025 µM/mL: MIC [9, 14] | MIC (M. luteus ATCC 10240; [15]) | MIC (P. aeruginosa ATCC 9027; [26])
15.6 mg/L: MIC (S. aureus ATCC 25923; S. aureus ATCC 25923) | MBC (B. subtilis ATCC 6633; B. subtilis ATCC 6633) | MIC (B. subtilis ATCC 6633; B. subtilis ATCC 6633) | MBC (H. pylori ATCC 43504; H. pylori ATCC 43504) | MIC (H. pylori ATCC 43504; H. pylori ATCC 43504) | MIC ([11]; S. typhimurium ATCC 14028) | MIC (E. coli ATCC 25922; E. coli ATCC 25922) | MIC (K. pneumoniae ATCC 13883; K. pneumoniae ATCC 13883) | MBC (P. aeruginosa ATCC 9027; P. aeruginosa ATCC 9027)
62.5 mg/L: MBC (S. aureus ATCC 25923; S. aureus ATCC 25923) | MBC ([9]; S. epidermidis ATCC 12228) | MBC (M. luteus ATCC 10240; M. luteus ATCC 10240) | MIC (B. cereus ATCC 10876; B. cereus ATCC 10876) | MBC (E. faecalis ATCC 29212; E. faecalis ATCC 29212)
31.3 mg/L: MIC (E. faecalis ATCC 29212; E. faecalis ATCC 29212) | MIC (C. jejunii ATCC 33291; C. jejunii ATCC 33291) | MBC ([11]; S. typhimurium ATCC 14028) | MBC (E. coli ATCC 25922; E. coli ATCC 25922) | MBC (K. pneumoniae ATCC 13883; K. pneumoniae ATCC 13883)
0.24 to 250 µg/mL: minimal inhibition concentration (MIC), range [12]
0.0015 µM/mL: MIC (A. israeli ATCC 10049; [19]) | MIC (F. nucleatum ATCC 25586; [29])
0.003 µM/mL: MBC (B. fragilis ATCC 10240; [27]) | MIC (B. fragilis ATCC 10240; [27]) | MBC (P. intermedia ATCC 25611; [28]) | MIC (P. intermedia ATCC 25611; [28]) | MBC (F. nucleatum ATCC 25586; [29])
0.012 µM/mL: MBC (A. israeli ATCC 10049; [19])
7.8 mg/L: MIC ([9]; S. epidermidis ATCC 12228) | MIC (M. luteus ATCC 10240; M. luteus ATCC 10240) | MIC (P. aeruginosa ATCC 9027; P. aeruginosa ATCC 9027)
0.49 mg/L: MIC (A. israeli ATCC 10049; A. israeli ATCC 10049) | MIC (F. nucleatum ATCC 25586; F. nucleatum ATCC 25586)
0.98 mg/L: MBC (B. fragilis ATCC 10240; B. fragilis ATCC 10240) | MIC (B. fragilis ATCC 10240; B. fragilis ATCC 10240) | MBC (P. intermedia ATCC 25611; P. intermedia ATCC 25611) | MIC (P. intermedia ATCC 25611; P. intermedia ATCC 25611) | MBC (F. nucleatum ATCC 25586; F. nucleatum ATCC 25586)
10.0 µM: lowest concentration with decreased total protein content (Caco-2 cells [7])
0.006 µM/mL: MBC [10, 20] | MIC [10, 20] | MBC (V. parvula ATCC 10790; [30]) | MIC (V. parvula ATCC 10790; [30])
0.4 µM/mL: MBC (B. cereus ATCC 10876; [17]) | MBC (P. acnes ATCC 11827) | MIC (P. acnes ATCC 11827) | MBC (C. jejunii ATCC 33291; [21])
3.9 mg/L: MBC (A. israeli ATCC 10049; A. israeli ATCC 10049)
0.049 µM/mL: MIC (S. aureus ATCC 25923; [13]) | MBC (B. subtilis ATCC 6633; [16]) | MIC (B. subtilis ATCC 6633; [16]) | MBC (H. pylori ATCC 43504; [22]) | MIC (H. pylori ATCC 43504; [22]) | MIC [11, 23] | MIC (E. coli ATCC 25922; [24]) | MIC (K. pneumoniae ATCC 13883; [25]) | MBC (P. aeruginosa ATCC 9027; [26])
1.95 mg/L: MBC ([10]; C. perfringens ATCC 13124) | MIC ([10]; C. perfringens ATCC 13124) | MBC (V. parvula ATCC 10790; V. parvula ATCC 10790) | MIC (V. parvula ATCC 10790; V. parvula ATCC 10790)
0.2 µM/mL: MBC (S. aureus ATCC 25923; [13]) | MBC [9, 14] | MBC (M. luteus ATCC 10240; [15]) | MIC (B. cereus ATCC 10876; [17]) | MBC (E. faecalis ATCC 29212; [18])
5.0 µM: lowest concentration with inhibition of mitochondrial activity (Caco-2 cells [5]) | lowest concentration with inhibition of lysosomal activity (Caco-2 cells [6])
significantly reduced biofilm density: effect on biofilm (CLSM, qualitative) (S. aureus biofilm)
1.0 µM: lowest concentration with significant (p ≤ 0.05) disintegration of cellular membranes (Caco-2 cells [8])
